Test results from ChEMBL document CHEMBL2331103, “Synthesis of a novel series of 2-alkylthio substituted naphthoquinones as potent acyl-CoA: cholesterol acyltransferase (ACAT) inhibitors” (Eur J Med Chem, 2013).

Target: T1, Sterol O-acyltransferase 1 (Homo sapiens, UniProt P35610)
T1 sequence (P35610 whole entry): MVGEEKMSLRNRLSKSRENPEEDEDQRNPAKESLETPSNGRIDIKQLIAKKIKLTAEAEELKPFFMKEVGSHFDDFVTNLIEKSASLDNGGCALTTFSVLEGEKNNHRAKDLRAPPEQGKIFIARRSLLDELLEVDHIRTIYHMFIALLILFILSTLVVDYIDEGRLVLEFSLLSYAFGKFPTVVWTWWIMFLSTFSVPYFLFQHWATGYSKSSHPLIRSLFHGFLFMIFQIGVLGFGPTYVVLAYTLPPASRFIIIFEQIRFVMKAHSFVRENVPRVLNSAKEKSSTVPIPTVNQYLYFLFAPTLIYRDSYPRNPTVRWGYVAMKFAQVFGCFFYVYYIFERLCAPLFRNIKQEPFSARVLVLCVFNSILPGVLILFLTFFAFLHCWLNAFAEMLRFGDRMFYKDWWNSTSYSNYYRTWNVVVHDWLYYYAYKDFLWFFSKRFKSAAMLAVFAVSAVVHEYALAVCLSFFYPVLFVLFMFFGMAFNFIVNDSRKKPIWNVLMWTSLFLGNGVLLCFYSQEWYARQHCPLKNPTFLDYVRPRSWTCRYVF
Experiment: Inhibition of human macrophage ACAT expressed in human HepG2 cells using [14C]oleoyl-CoA as substrate incubated for 20 mins prior to substrate addition measured after 25 mins by liquid scintillation counting analysis
Assay type: cell-based

Question: Which IC50 does the source give for CCCCCCCCCCCSC1=CC(=O)c2ccccc2C1=O here?
Answer: 8.67 µM

Question: CCCCCCCCCCCCCCC[S+]([O-])C1=CC(=O)c2ccccc2C1=O (stereo not given) was tested. Which IC50 did it give?
Answer: 56.6 µM

Question: For CCS(=O)(=O)C1=CC(=O)c2c(OC)ccc(OC)c2C1=O, which IC50 is on record?
Answer: > 100 µM

Question: Which IC50 does the source give for CCCS(=O)(=O)C1=CC(=O)c2c(OC)ccc(OC)c2C1=O here?
Answer: > 100 µM

Question: CCCCCCCCCCCS(=O)(=O)C1=CC(=O)c2c(OC)ccc(OC)c2C1=O was tested. Which IC50 did it give?
Answer: 3.4 µM

Question: How did the IC50 turn out when CCCCCCCCCCCCCCCS(=O)(=O)C1=CC(=O)c2c(OC)ccc(OC)c2C1=O was run?
Answer: 5.8 µM

Question: CSC1=CC(=O)c2ccccc2C1=O was tested. Which IC50 did it give?
Answer: 2.82 µM

Question: With CCCSC1=CC(=O)c2ccccc2C1=O as the compound, how does the IC50 read?
Answer: 5.08 µM

Question: How did the IC50 turn out when CCCCSC1=CC(=O)c2ccccc2C1=O was run?
Answer: 7.87 µM

Question: CCCCCSC1=CC(=O)c2ccccc2C1=O was tested. Which IC50 did it give?
Answer: 8.19 µM

Question: CCCCCCCCSC1=CC(=O)c2ccccc2C1=O was tested. Which IC50 did it give?
Answer: 6 µM

Question: For CCCCCCCCCSC1=CC(=O)c2ccccc2C1=O, which IC50 is on record?
Answer: 1.63 µM

Question: CCCCCCCCCCCCSC1=CC(=O)c2ccccc2C1=O was tested. Which IC50 did it give?
Answer: 1.66 µM

Question: For CCCCCCCCCCCCCCCSC1=CC(=O)c2ccccc2C1=O, which IC50 is on record?
Answer: 4.13 µM

Question: Which IC50 does the source give for CCCCCCCCCCCCCCCCCCSC1=CC(=O)c2ccccc2C1=O here?
Answer: 1.45 µM

Question: For C[S+]([O-])C1=CC(=O)c2ccccc2C1=O (stereo not given), which IC50 is on record?
Answer: 5.66 µM

Question: For CCCCCCCCC[S+]([O-])C1=CC(=O)c2ccccc2C1=O (stereo not given), which IC50 is on record?
Answer: 5.47 µM

Question: How did the IC50 turn out when COc1ccc(OC)c2c1C(=O)C=C([S+](C)[O-])C2=O (stereo not given) was run?
Answer: > 100 µM

Question: CCCCCCCCCC[S+]([O-])C1=CC(=O)c2c(OC)ccc(OC)c2C1=O (stereo not given) was tested. Which IC50 did it give?
Answer: 8.4 µM

Question: How did the IC50 turn out when CCCCCCCCCCC[S+]([O-])C1=CC(=O)c2c(OC)ccc(OC)c2C1=O (stereo not given) was run?
Answer: 1.1 µM

Question: CCCCCCCCCCCC[S+]([O-])C1=CC(=O)c2c(OC)ccc(OC)c2C1=O (stereo not given) was tested. Which IC50 did it give?
Answer: 2.4 µM

Question: For CCCCCCCCCCCCCCCCCC[S+]([O-])C1=CC(=O)c2c(OC)ccc(OC)c2C1=O (stereo not given), which IC50 is on record?
Answer: > 100 µM

Question: COc1ccc(OC)c2c1C(=O)C=C(S(C)(=O)=O)C2=O was tested. Which IC50 did it give?
Answer: > 100 µM

Question: Which IC50 does the source give for CCSC1=CC(=O)c2ccccc2C1=O here?
Answer: 7.51 µM

Question: CC(C)CNC(=O)/C=C/C=C/CCCC/C=C/c1ccc2c(c1)OCO2 [RETROFRACTAMIDE B] was tested. Which IC50 did it give?
Answer: 3.7 µM
